# Experimental data taken from patent US8642622B2, “Piperidinyl compound as a modulator of chemokine receptor activity” (Bristol-Myers Squibb Company, priority 2010, dated 2014).
# Experiments:
# Human PXR = molecular target: T1, Human PXR (Homo sapiens, UniProt O75469); assay: PXR transactivation assay (HepG2, CYP3A-Luc reporter); format: cell-based
# T1 construct: expressed in transfected cells; host or cells: HepG2
# T1 sequence (O75469 1-434): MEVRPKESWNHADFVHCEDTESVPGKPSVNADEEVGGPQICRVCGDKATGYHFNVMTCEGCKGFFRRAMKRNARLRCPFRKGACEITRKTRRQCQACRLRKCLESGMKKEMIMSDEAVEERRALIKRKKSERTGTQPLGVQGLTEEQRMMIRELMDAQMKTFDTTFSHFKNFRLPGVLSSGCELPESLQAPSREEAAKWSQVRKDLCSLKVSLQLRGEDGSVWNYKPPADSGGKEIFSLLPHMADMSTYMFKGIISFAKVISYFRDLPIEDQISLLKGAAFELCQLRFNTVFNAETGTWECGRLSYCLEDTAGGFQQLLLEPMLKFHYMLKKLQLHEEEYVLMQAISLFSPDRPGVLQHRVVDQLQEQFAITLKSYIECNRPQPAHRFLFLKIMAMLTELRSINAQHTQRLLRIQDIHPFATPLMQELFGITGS
# Text: The cell culture medium used is DMEM. […] Charcoal/dextran treated fetal bovine serum (FBS) was purchased from Hyclone (Logan, Utah). HepG2 cells were obtained from ATCC (Manassas, Va.). Human PXR-pcDNA3 and luciferase reporter containing CYP3A4 promoter, CYP3A-Luc, were generated at Bristol-Myers Squibb. White tissue culture (TC)-surface 384-well plates were purchased from Perkin Elmer (Boston, Mass.). Luciferase substrate (Steady-Glo) was purchased from Promega (Madison, Wis.). Control compounds rifampicin, mifepristone, and sulfinpyrazone were purchased from Sigma (St. Louis, Mo.).
# Culture of HepG2 cells is performed in T175 flasks using DMEM containing 10% FBS. The transfection mixture contains 1 μg/mL of PXR-pcDNA3 plasmid DNA, 20 μg/ml of Cyp3A-Luc plasmid DNA, 90 μL/mL of Lipofectamine 2000, and serum-free medium. After incubating at room temperature for 20 minutes, the transfection mixture (1 ml per flask) is applied to the cells in fresh medium (20 mL per flask), and flasks incubated at 37° C. (5% CO2) overnight.
# The flasks are then tapped vigorously to break up cell aggregates. After the addition of 8 mL of DMEM containing 5% charcoal/dextran-treated FBS, the entire mixture is transferred to conical tubes. Cells are then centrifuged at 1000 rpm for 5 minutes. Cell pellets are resuspended to a final count of ˜7×10^6 cells/mL in freezing media (DMEM containing 20% serum and 10% DMSO). The cell suspension is aliquoted into 15-mL polypropylene tubes, 5 mL per tube. Cells are slowly frozen by placing in a Styrofoam-insulated container at −80° C. overnight. Vials are transferred to an Ultracold (−140° C.) freezer after 24 hours for long-term storage.
# Vials of cryopreserved cells are thawed rapidly in a warm water bath for five minutes. Cells are pooled and diluted to 50 mL in a 50-mL conical vial. The thawed cells are centrifuged at 1500 rpm for 5 minutes to collect the cells and the supernatant discarded. Cells are then resuspended in fresh Media II (DMEM containing 5% charcoal/dextran-treated FBS, 1% Penicillin/Streptomycin, 100 μM Non-essential Amino Acids, 1 mM Sodium Pyruvate, and 2 mM L-Glutamine), counted using the Guava Cell Counter, and diluted to 1.6×10^5 cells/ml in the same media.
# Fifty microliters of cell mixture is added to wells in columns 1-23 of white tissue-culture treated 384-well plates containing 0.25 μL of test compound dissolved in 100% DMSO. Fifty microliters of Media II is added to wells in column 24. The plates are incubated at 37° C. (5% CO2) for 24 hours, then 5 μL of Alamar Blue reagent (Trek Diagnostics, Cat #00-100) is added to each well. Plates are then incubated an additional two hours at 37° C., 5% CO2 and then one hour at room temperature. […] After the fluorescence is measured, 25 μL of luciferase substrate (Steady-Glo, Promega) is added to each well. The plates are incubated for fifteen minutes at room temperature, after which the luminescence is read on a PheraStar (BMG Labtech) plate reader.
# Rifampicin (10 μM), a well-known agonist of PXR, is included in each plate as an internal standard and positive control. The data is then expressed as percent control (% CTRL), where the control signal is the signal from the 10 μM rifampicin and the blank signal is that from the DMSO vehicle. % CTRL=((Compound signal−Blank signal)/(Control signal−Blank signal))*100
# The EC50 is defined as the concentration corresponding to half of the maximal response derived from the fitted 20-point curve as determined using a four-parameter logistic regression model. Additionally, compounds may also be reported as EC20 or EC60.
# hERG potassium channel = molecular target: T2, hERG potassium channel (Homo sapiens, UniProt Q12809); assay: hERG patch clamp assay; format: cell-based; conditions: HEK-293 cells stably expressing hERG, pH 7.4, HEK-293, protein-free buffer, read-out: hERG channel, % inh
# T2 construct: expressed in transfected cells
# Experimental: Whole-cell patch-clamp was used to directly measure hERG tail currents in HEK-293 cells stably expressing the cloned hERG potassium channel α subunit. Effects of compounds were calculated by measuring inhibition of peak tail current. Experiments were carried out using an aqueous buffer with pH 7.4 at room temperature. There was no protein in the assay buffer. The test concentrations reported are nominal free drug levels. Data is reported as percent inhibition at a fixed concentration.
# [1] = molecular target: T3, human cardiac sodium channel, SCNSA (Homo sapiens, UniProt Q14524); assay: Sodium channel whole-cell patch-clamp assay; format: cell-based; conditions: HEK293, HEK-293, protein-free buffer, read-out: Na channel, % inh
# T3 construct: expressed in transfected cells; host or cells: HEK-293
# Experimental: Whole-cell patch-clamp was used to directly measure inward sodium currents in HEK-293 cells expressing the human cardiac sodium channel, SCNSA. After reach steady-state effect in the presence of drug, rate-dependence was assessed by stimulation at frequencies of 1 Hz and 4 Hz. Experiments were carried out using an aqueous buffer at pH 7.4 and at room temperature. There is no protein in the buffer and drug concentrations reported are nominal free drug levels. Test article was evaluated up to 10 μM (protein-free buffer). […] Data is reported as percent inhibition at a fixed concentration.
# [2] = molecular target: T4, human cardiac L-type Ca channel (α1C) and its β subunit (Homo sapiens, UniProt Q13936); assay: L-type calcium channel whole-cell patch-clamp assay; format: cell-based; conditions: @ 30 μM, HEK-293, protein-free buffer
# T4 construct: expressed in transfected cells
# Experimental: In addition to the potential for interaction with the L-type calcium channel, whole-cell patch-clamp was used to directly measure inward calcium currents in HEK-293 cells stably expressing the cloned human cardiac L-type Ca channel (α1C) and its β subunit. Effects of compounds were calculated by measuring inhibition of peak current. Experiments were carried out using an aqueous buffer at pH 7.4 and at room temperature. There is no protein in the buffer and drug concentrations reported are nominal free drug levels. Data is reported as percent inhibition at a fixed concentration.
# Protein binding, rabbit = format: in vitro ADME
# T2 sequence (Q12809 whole entry): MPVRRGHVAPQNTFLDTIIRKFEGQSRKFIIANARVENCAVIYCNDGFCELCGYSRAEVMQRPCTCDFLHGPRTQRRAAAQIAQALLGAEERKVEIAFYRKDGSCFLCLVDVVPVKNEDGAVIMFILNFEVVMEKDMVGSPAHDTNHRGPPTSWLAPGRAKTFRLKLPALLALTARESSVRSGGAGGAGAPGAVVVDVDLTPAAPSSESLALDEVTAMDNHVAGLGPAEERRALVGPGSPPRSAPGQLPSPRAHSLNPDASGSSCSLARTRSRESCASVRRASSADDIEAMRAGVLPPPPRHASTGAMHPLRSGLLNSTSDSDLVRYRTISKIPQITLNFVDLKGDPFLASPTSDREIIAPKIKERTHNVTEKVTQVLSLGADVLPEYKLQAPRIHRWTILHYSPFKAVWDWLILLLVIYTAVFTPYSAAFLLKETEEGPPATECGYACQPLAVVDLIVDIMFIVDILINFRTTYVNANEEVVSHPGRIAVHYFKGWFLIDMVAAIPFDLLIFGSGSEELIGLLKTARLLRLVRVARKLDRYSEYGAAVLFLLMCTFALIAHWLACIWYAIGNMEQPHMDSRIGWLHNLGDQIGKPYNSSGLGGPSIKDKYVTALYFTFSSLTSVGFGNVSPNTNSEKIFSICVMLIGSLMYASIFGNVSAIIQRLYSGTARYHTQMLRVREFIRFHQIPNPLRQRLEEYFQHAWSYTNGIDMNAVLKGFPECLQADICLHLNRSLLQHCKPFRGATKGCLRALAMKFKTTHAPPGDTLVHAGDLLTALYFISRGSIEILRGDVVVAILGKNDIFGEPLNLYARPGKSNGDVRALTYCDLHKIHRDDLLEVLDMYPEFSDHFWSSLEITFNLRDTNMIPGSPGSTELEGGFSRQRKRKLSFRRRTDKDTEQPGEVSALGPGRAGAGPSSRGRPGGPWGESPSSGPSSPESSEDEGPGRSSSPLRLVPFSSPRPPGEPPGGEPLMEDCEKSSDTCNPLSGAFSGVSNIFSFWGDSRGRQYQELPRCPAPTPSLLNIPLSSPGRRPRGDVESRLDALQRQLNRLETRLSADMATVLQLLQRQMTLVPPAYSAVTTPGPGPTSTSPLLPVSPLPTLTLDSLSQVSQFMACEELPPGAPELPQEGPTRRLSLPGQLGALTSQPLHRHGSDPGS
# T3 sequence (Q14524 whole entry): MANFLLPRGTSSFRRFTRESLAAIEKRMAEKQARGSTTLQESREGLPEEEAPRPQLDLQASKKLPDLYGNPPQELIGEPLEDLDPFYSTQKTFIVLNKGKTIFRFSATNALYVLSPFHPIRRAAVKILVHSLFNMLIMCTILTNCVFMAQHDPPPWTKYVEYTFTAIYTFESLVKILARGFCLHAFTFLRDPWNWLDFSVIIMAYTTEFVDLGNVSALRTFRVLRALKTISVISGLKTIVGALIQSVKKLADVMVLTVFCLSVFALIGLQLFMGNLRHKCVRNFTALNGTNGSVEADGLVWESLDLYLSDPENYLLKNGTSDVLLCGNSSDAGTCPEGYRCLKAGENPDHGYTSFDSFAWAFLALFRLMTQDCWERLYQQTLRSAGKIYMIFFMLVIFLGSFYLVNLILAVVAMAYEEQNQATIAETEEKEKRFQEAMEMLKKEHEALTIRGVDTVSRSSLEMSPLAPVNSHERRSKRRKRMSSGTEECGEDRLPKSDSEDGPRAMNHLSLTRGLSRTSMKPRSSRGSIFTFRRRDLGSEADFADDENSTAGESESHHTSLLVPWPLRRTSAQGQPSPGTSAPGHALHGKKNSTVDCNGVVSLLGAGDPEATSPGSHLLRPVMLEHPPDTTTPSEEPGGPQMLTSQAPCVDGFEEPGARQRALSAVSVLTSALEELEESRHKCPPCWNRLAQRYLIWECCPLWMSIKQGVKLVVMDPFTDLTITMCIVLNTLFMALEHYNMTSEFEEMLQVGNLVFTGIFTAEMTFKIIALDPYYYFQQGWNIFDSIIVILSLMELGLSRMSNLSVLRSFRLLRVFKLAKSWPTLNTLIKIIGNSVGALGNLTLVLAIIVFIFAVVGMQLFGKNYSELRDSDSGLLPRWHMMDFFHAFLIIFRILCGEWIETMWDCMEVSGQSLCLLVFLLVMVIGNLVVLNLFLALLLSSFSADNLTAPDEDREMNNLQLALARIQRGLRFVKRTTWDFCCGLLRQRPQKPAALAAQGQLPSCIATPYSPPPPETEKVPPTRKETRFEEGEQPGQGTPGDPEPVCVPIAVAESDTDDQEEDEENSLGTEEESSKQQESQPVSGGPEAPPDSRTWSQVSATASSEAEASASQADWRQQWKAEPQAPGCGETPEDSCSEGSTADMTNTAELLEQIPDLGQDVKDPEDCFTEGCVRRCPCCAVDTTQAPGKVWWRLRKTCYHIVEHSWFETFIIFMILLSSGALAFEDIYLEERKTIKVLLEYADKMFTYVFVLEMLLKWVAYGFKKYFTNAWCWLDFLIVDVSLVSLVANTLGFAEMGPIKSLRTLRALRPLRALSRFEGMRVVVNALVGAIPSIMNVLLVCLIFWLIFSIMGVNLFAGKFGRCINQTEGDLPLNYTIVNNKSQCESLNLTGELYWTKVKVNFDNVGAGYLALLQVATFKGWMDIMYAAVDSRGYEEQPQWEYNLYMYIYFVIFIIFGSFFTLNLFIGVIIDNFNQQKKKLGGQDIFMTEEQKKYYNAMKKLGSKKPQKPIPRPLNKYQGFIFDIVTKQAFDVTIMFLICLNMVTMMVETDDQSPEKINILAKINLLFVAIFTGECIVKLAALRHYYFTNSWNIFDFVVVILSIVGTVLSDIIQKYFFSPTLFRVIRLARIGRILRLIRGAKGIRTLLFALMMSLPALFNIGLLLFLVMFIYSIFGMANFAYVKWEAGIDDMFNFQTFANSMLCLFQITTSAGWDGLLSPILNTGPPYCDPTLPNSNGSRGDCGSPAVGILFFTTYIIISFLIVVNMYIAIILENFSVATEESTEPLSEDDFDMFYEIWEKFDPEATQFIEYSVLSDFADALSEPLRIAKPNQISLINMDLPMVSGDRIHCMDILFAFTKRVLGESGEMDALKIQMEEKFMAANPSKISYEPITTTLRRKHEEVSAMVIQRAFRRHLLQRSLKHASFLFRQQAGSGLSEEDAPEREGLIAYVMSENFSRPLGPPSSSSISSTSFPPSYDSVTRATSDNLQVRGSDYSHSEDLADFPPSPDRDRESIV
smiles,measurement,setting,value
CC(C)COC(=O)N[C@@H](C(=O)N1CC[C@](O)(c2ccc(Cl)cc2)C(C)(C)C1)C(C)C [Example 1083],PXR EC20,Human PXR; reported as EC20,1.9 (EC20) μM
"CC(C)[C@@H](NC(=O)[C@@H]1CCC(F)(F)C1)C(=O)N1CC[C@](O)(c2ccc(Cl)cc2)[C@@](C)(O)C1 [Compound I, (R)—N—((R)-1-((3S,4S)-4-(4-chlorophenyl)-3,4-dihydroxy-3-methylpiperidin-1-yl)-3-methyl-1-oxobutan-2-yl)-3,3-difluorocyclopentanecarboxamide]",inhibition at 30 µM,hERG potassium channel,22%
same,inhibition at 10 µM,[1],21%
same,"Ca channel, % inh",[2],29% @ 30 μM
same,fraction unbound,"Protein binding, rabbit",0.46
same,"PXR activation (in vitro screen, in words)",Human PXR,not a significant activator
same,EC50,"Human PXR; HepG2, relative to 10 μM rifampicin",> 50 µM
